Laboratory results reported in patent US20070275855A1, “Herbicidal Composition” (ISHIHARA SANGYO KAISHA, LTD., priority 2004, published 2007).

Assays:
Assay type in all cases: in vivo
[1] = test system: barnyardgrass (Echinochloa oryzicola vasing); assay: Test Example 5: paddy pot test, submerged application at 2.4 to 3.2 leaf stage
From the text: (§1) Growth inhibition rate (%)=0% (equivalent to the non-treated area) to 100% (complete kill)
Paddy field soil was put into a 1/10,000 are pot, and seeds of barnyardgrass (Echinochloa oryzicola vasing) were sown and left to stand under an irrigated condition with a water depth of 3.5 cm. When barnyardgrass reached 2.4 to 3.2 leaf stage, wettable powders of compound A2 compound B1 and azimsulfuron were, respectively, diluted with water and applied under submerged condition so that the active ingredients became the prescribed amounts, respectively. The state of growth was visually observed 29 days after application and evaluated in the same manner as in the above Test Example 1.

[2] = test system: Japanese bulrush (Scirpus juncoides); assay: Test Example 4: paddy pot test, submerged application at 2.2 to 2.8 leaf stage; details: for Growth inhibition rate (%) Observed: 2.2 to 2.8 leaf stage, 29 days after application
From the text: as §1
Paddy field soil was put into a 1/1,700 are pot, and seeds of Japanese bulrush (Scirpus juncoides) were sown and left to stand under an irrigated condition with a water depth of 3.5 cm. When Japanese bulrush reached 2.2 to 2.8 leaf stage, a wettable powder of compound A2, a wettable powder of compound B1 and an emulsifiable concentrate of benfuresate were, respectively, diluted with water and applied under submerged condition so that the active ingredients became the prescribed amounts, respectively. The state of growth was visually observed 29 days after application and evaluated in the same manner as in the above Test Example 1.

[3] = test system: barnyardgrass (Echinochloa oryzicola vasing); assay: Test Example 2: paddy pot test, submerged application at 2 leaf stage; details: for Growth inhibition rate (%) Observed: 2 leaf stage, 18 days after application
From the text: (§2) When the herbicidal activity in a case where two active ingredients are combined, is larger than the simple sum of the respective herbicidal activities of the two active ingredients (the expected activity), it is called a synergistic effect. The activity expected by the combination of two active ingredients can be calculated as follows (Colby S. R., “Weed”, vol. 15, p. 20-22, 1967). E=α+β−(α×β÷100) where α: growth inhibition rate when treated with x (g/a) of herbicide X,
(§3) β: growth inhibition rate when treated with y (g/a) of herbicide Y,
(§4) E: growth inhibition rate expected when treated with x (g/a) of herbicide X and y (g/a) of herbicide Y.
(§5) Namely when the actual growth inhibition rate (observed value) is larger than the growth inhibition rate by the above calculation (expected value), the activity by the combination can be regarded as showing a synergistic effect.
as §1
Paddy field soil was put into a 1/10,000 are pot, and seeds of barnyardgrass (Echinochloa oryzicola vasing) were sown and left to stand under an irrigated condition with a water depth of 3.5 cm. When barnyardgrass reached 2 leaf stage, a wettable powder of compound A2 diluted with water and a microemulsion of compound B1 as it was were, respectively, applied under submerged condition so that the active ingredients became the prescribed amounts, respectively. The state of growth was visually observed 18 days after application and evaluated in the same manner as in the above Test Example 1.

[4] = test system: barnyardgrass (Echinochloa oryzicola vasing); assay: Test Example 1: paddy pot test, submerged application on the next day after sowing; details: for Growth inhibition rate (%) Observed: next day after sowing, 21 days after application
From the text: as §2, §3, §4, §5
Paddy field soil was put into a 1/1,700 are pot, and seeds of barnyardgrass (Echinochloa oryzicola vasing) were sown and left to stand under an irrigated condition with a water depth of 3.5 cm. On the next day after the sowing, a wettable powder of compound A2 diluted with water and a microemulsion of compound B1 as it was were, respectively, applied under submerged condition so that the active ingredients became the prescribed amounts, respectively The state of growth was visually observed 21 days after application and the growth inhibition rate (%) evaluated in accordance with the following evaluation standard (observed value) and the growth inhibition rate (%) calculated by the above-mentioned Colby method (expected value) are shown in Table 1.
as §1

[5] = test system: barnyardgrass (Echinochloa oryzicola vasing); assay: Test Example 3: paddy pot test, submerged application at 3 leaf stage; details: 504 h, 21 days after application, read-out: Growth inhibition rate (%) Observed
From the text: as §2, §3, §4, §5, §1
Paddy field soil was put into a 1/10,000 are pot, and seeds of barnyardgrass (Echinochloa oryzicola vasing) were sown and left to stand under an irrigated condition with a water depth of 3.5 cm. […] The state of growth was visually observed 21 days after application and evaluated in the same manner as in the above Test Example 1.

[6] = Schoenoplectiella juncoides, 696 h, read-out: Growth inhibition rate (%) Observed
[7] = Echinochloa oryzicola, 432 h, read-out: Growth Inhibition rate (%) Observed
[8] = Echinochloa oryzicola, 504 h, read-out: Growth inhibition rate (%) Observed

For `COCC(=O)OC(c1ncccc1S(=O)(=O)NC(=O)Nc1nc(OC)cc(OC)n1)C(C)F` (stereo not drawn) [Compound A2, flucetosulfuron], the “Growth inhibition rate (%) Observed” value ([1]; 0.11 g/a, 2.4 to 3.2 leaf stage, 29 days after application) was 96%, the “Growth inhibition rate (%) Observed” value ([2]; 0.22 g/a) was 87% and the “Growth inhibition rate (%) Observed” value ([3]; 0.05 g/a) was 84%. The “Growth inhibition rate (%) Observed” value ([3]; 0.10 g/a) was 98%, the “Growth inhibition rate (%) Observed” value ([3]; 0.15 g/a) was 99% and the “Growth inhibition rate (%) Observed” value ([4]; 0.1 g/a) was 95%. The “Growth inhibition rate (%) Observed” value ([4]; 0.2 g/a) was 98%.

Work on `CCOC(=O)C(Cl)Cc1cc(-n2nc(C)n(C(F)F)c2=O)c(F)cc1Cl` (stereo not drawn) [Compound B1, carfentrazone-ethyl] yielded an inhibition at 37.5 g/ha ([1]; Echinochloa oryzicola, 696 h, read-out: Growth inhibition rate (%) Observed) of 5%, an inhibition at 50 g/ha [2, 6] of 80% and an inhibition at 100 g/ha [2, 6] of 100%. For the same molecule, the inhibition at 150 g/ha [2, 6] was 99%, the inhibition at 11.3 g/ha ([5]; 0.113 g/a) was 0% and the inhibition at 22.5 g/ha ([5]; 0.225 g/a) was 0%. The inhibition at 30 g/ha [3, 7] was 3%, the inhibition at 45 g/ha [3, 7] was 8% and the inhibition at 67.5 g/ha [3, 7] was 13%. It also gave an inhibition at 101.2 g/ha [3, 7] of 18%, an inhibition at 20 g/ha [4, 8] of 0% and an inhibition at 30 g/ha [4, 8] of 0%.

In the case of `CCS(=O)(=O)Oc1ccc2c(c1)C(C)(C)CO2` [Benfuresate, benfuresate, reference compound], the “Growth inhibition rate (%) Observed” value ([2]; 6 g/a) is reported as 90% and the “Growth inhibition rate (%) Observed” value ([2]; 9 g/a) is reported as 89%.
